According to patent US20060069132A1, “Azolecarboxamide herbicides” (priority 2004, published 2006):

How the values were obtained:
[1] = test system: barnyardgrass; experiment: Test B pre-/postemergence herbicide test; format: in vivo, Echinochloa crus-galli; details: for Plant response rating, Barnyardgrass: preemergence; for Barnyardgrass plant response rating: postemergence, visual rating, scale 0 (no effect) to 100 (complete control)
How it was run: (§1)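 Species tested were Echinochloa crus-galli, Ipomoea coccinea, Xanthium strumarium and Oryza sativa, treated both before emergence and at the 1- to 4-leaf stage; rice and barnyardgrass were also tested under flooding at 2 leaves. Greenhouse incubation lasted 13–15 days before visual 0–100 scoring.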

[2] = test system: Surinam grass; experiment: Test B pre-/postemergence herbicide test; format: in vivo, Urochloa decumbens; details: for Plant response rating, Surinam Grass: preemergence; for Surinam Grass plant response rating: postemergence, visual rating, scale 0 (no effect) to 100 (complete control)
How it was run: (§2)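 Herbicidal effect was judged by eye on a 0–100 scale after plants stood 13 to 15 days in the greenhouse following pre- or postemergence treatment with surfactant-containing formulations.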

[3] = test system: cocklebur; experiment: Test B pre-/postemergence herbicide test; format: in vivo, Xanthium strumarium; details: for Plant response rating, Cocklebur: preemergence; for Cocklebur plant response rating: postemergence, visual rating, scale 0 (no effect) to 100 (complete control)
How it was run: as §1

[4] = test system: corn; experiment: Test B pre-/postemergence herbicide test; format: in vivo, Zea mays; details: for Plant response rating, Corn: preemergence; for Corn plant response rating: postemergence, visual rating, scale 0 (no effect) to 100 (complete control)
How it was run: as §2

[5] = test system: large crabgrass; experiment: Test B pre-/postemergence herbicide test; format: in vivo, Digitaria sanguinalis; details: for Plant response rating, Crabgrass, Large: preemergence; for Crabgrass, Large plant response rating: postemergence, visual rating, scale 0 (no effect) to 100 (complete control)
How it was run: as §2

[6] = test system: giant foxtail; experiment: Test B pre-/postemergence herbicide test; format: in vivo, Setaria faberi; details: for Plant response rating, Foxtail, Giant: preemergence; for Foxtail, Giant plant response rating: postemergence, visual rating, scale 0 (no effect) to 100 (complete control)
How it was run: as §2

[7] = test system: lambsquarters; experiment: Test B pre-/postemergence herbicide test; format: in vivo, Chenopodium album; details: for Plant response rating, Lambsquarters: preemergence; for Lambsquarters plant response rating: postemergence, visual rating, scale 0 (no effect) to 100 (complete control)
How it was run: as §2

[8] = test system: morningglory; experiment: Test B pre-/postemergence herbicide test; format: in vivo, Ipomoea coccinea; details: for Plant response rating, Morningglory: preemergence; for Morningglory plant response rating: postemergence, visual rating, scale 0 (no effect) to 100 (complete control)
How it was run: as §1

[9] = test system: pigweed; experiment: Test B pre-/postemergence herbicide test; format: in vivo, Amaranthus retroflexus; details: for Plant response rating, Pigweed: preemergence; for Pigweed plant response rating: postemergence, visual rating, scale 0 (no effect) to 100 (complete control)
How it was run: as §2

[10] = test system: rice; experiment: Test B pre-/postemergence herbicide test; format: in vivo, Oryza sativa; details: preemergence
How it was run: as §2

[11] = test system: velvetleaf; experiment: Test B pre-/postemergence herbicide test; format: in vivo, Abutilon theophrasti; details: for Plant response rating, Velvetleaf: preemergence; for Velvetleaf plant response rating: postemergence, visual rating, scale 0 (no effect) to 100 (complete control)
How it was run: as §2

[12] = test system: blackgrass; experiment: Test B postemergence herbicide test; format: in vivo, Alopecurus myosuroides; details: postemergence, visual rating, scale 0 (no effect) to 100 (complete control)
How it was run: (§3)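 Plants grow to 1- to 4-leaf stage (2–18 cm) for postemergence spraying, or to 2-leaf stage for the paddy test. Formulated compound is applied. Greenhouse holding lasts 13–15 days. Response is scored visually relative to controls, 0 no effect to 100 complete control; a dash means no result.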

[13] = test system: wheat; experiment: Test B postemergence herbicide test; format: in vivo, Triticum aestivum; set-up: key to Wheat plant response rating: 0 = no effect, 100 = complete control; details: postemergence, 500 g ai/ha; visual rating, scale 0 (no effect) to 100 (complete control)
How it was run: (§4)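 After treating 2-leaf paddy plants or 2–18 cm postemergence plants (1 to 4 leaves) with formulated chemical, researchers kept them in a greenhouse for 13–15 days. Effects were judged visually versus controls: 0 indicates none, 100 total control.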

[14] = test system: wild oat; experiment: Test B postemergence herbicide test; format: in vivo, Avena fatua; details: postemergence, visual rating, scale 0 (no effect) to 100 (complete control)
How it was run: as §4

[15] = test system: rice; experiment: Test B flooded paddy test; format: in vivo, Oryza sativa; details: 1000 g ai/ha, visual rating, scale 0 to 100 (0 no effect, 100 complete control), 13 to 15 days
How it was run: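 Treated at 2-leaf (paddy) or 1–4-leaf, 2–18 cm (postemergence); greenhouse 13–15 d; visual score vs control, 0 none to 100 complete control; dash = not tested.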

[16] = test system: small flower umbrella sedge; experiment: Test B flooded paddy test; format: in vivo, Cyperus difformis; details: 1000 g ai/ha, visual rating, scale 0 to 100 (0 no effect, 100 complete control), 13 to 15 days
How it was run: as §3

[17] = test system: ducksalad; experiment: Test B flooded paddy test; format: in vivo, Heteranthera limosa; details: 1000 g ai/ha, visual rating, scale 0 to 100 (0 no effect, 100 complete control), 13 to 15 days
How it was run: as §3

[18] = test system: barnyardgrass; experiment: Test B flooded paddy test; format: in vivo, Echinochloa crus-galli; details: 1000 g ai/ha, visual rating, scale 0 to 100 (0 no effect, 100 complete control), 13 to 15 days
How it was run: as §3

[19] = test system: rice; experiment: Test C flooded paddy test; format: in vivo, Oryza sativa
How it was run: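 Plants were grown to the 1- to 4-leaf stage (2–18 cm) and then treated postemergence, or grown to the 2-leaf stage for the flooded paddy test. They were held in a greenhouse for 12 to 14 days and then scored by eye against controls, where 0 is no effect and 100 is complete control.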

[20] = test system: smallflower umbrella sedge; experiment: Test C flooded paddy test; format: in vivo, Cyperus difformis
[21] = test system: ducksalad; experiment: Test C flooded paddy test; format: in vivo, Heteranthera limosa
[22] = test system: barnyardgrass; experiment: Test C flooded paddy test; format: in vivo, Echinochloa crus-galli
How it was run: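 Weeds and wheat were sprayed after emergence, at a height of 2 to 18 cm (1–4 leaves), and paddy barnyardgrass was flooded and treated at two leaves. Assessment took place 12–14 days later in the greenhouse on a 0-to-100 visual control scale. A dash means no result was obtained.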

[23] = 500 g ai/ha, visual rating 0-100, 0 no effect, 100 complete control
[24] = 125 g ai/ha, 0 to 100 scale, 0 is no effect, 100 is complete control
[25] = 62 g ai/ha, scale 0 to 100 (0 no effect, 100 complete control)
[26] = 125 g ai/ha, scale 0 to 100 (0 no effect, 100 complete control)
[27] = 250 g ai/ha, scale of 0 to 100, 0 is no effect, 100 is complete control
[28] = 500 g ai/ha, visual rating after 12 to 14 days, scale 0 to 100 (0 no effect, 100 complete control)

## CCOC(=O)c1cc(N(C(C)=O)C(=O)c2cc(C(C)(C)C)nn2CC)ccc1C [Compound 141]
[1]; [23]
  Plant response rating, Barnyardgrass: 0
[1]; 125 g ai/ha
  Barnyardgrass plant response rating: 0
[1]; 500 g ai/ha
  Barnyardgrass plant response rating: 10
[1]; [24]
  Plant response rating, Barnyardgrass: 0
[2]; [23]
  Plant response rating, Surinam Grass: 10
[2]; 125 g ai/ha
  Surinam Grass plant response rating: 10
[2]; 500 g ai/ha
  Surinam Grass plant response rating: 20
[2]; [24]
  Plant response rating, Surinam Grass: 0
[3]; [23]
  Plant response rating, Cocklebur: 10
[3]; 125 g ai/ha
  Cocklebur plant response rating: 0
[3]; 500 g ai/ha
  Cocklebur plant response rating: 20
[3]; [24]
  Plant response rating, Cocklebur: 0
[4]; [23]
  Plant response rating, Corn: 0
[4]; 125 g ai/ha
  Corn plant response rating: 0
[4]; 500 g ai/ha
  Corn plant response rating: 10
[4]; [24]
  Plant response rating, Corn: 0
[5]; [23]
  Plant response rating, Crabgrass, Large: 20
[5]; 125 g ai/ha
  Crabgrass, Large plant response rating: 10
[5]; 500 g ai/ha
  Crabgrass, Large plant response rating: 30
[5]; [24]
  Plant response rating, Crabgrass, Large: 10
[6]; [23]
  Plant response rating, Foxtail, Giant: 20
[6]; 125 g ai/ha
  Foxtail, Giant plant response rating: 20
[6]; 500 g ai/ha
  Foxtail, Giant plant response rating: 20
[6]; [24]
  Plant response rating, Foxtail, Giant: 10
[7]; [23]
  Plant response rating, Lambsquarters: 0
[7]; 125 g ai/ha
  Lambsquarters plant response rating: 60
[7]; 500 g ai/ha
  Lambsquarters plant response rating: 90
[7]; [24]
  Plant response rating, Lambsquarters: 0
[8]; [23]
  Plant response rating, Morningglory: 30
[8]; 125 g ai/ha
  Morningglory plant response rating: 20
[8]; 500 g ai/ha
  Morningglory plant response rating: 30
[8]; [24]
  Plant response rating, Morningglory: 20
[9]; [23]
  Plant response rating, Pigweed: 30
[9]; 125 g ai/ha
  Pigweed plant response rating: 30
[9]; 500 g ai/ha
  Pigweed plant response rating: 80
[9]; [24]
  Plant response rating, Pigweed: 0
[10]; [23]
  Plant response rating, Rice: 0
[10]; [24]
  Plant response rating, Rice: 0
[11]; [23]
  Plant response rating, Velvetleaf: 20
[11]; 125 g ai/ha
  Velvetleaf plant response rating: 20
[11]; 500 g ai/ha
  Velvetleaf plant response rating: 80
[11]; [24]
  Plant response rating, Velvetleaf: 0
[12]; 125 g ai/ha
  Blackgrass plant response rating: 20
[12]; 500 g ai/ha
  Blackgrass plant response rating: 20
[13]
  Wheat plant response rating: 20
[14]; 125 g ai/ha
  Oat, Wild plant response rating: 10
[14]; 500 g ai/ha
  Oat, Wild plant response rating: 20
[15]
  Rice plant response rating: 0
[16]
  Sedge, Umbrella plant response rating: 90
[17]
  Ducksalad plant response rating: 80
[18]
  Barnyardgrass plant response rating: 10
[19]; [25]
  Rice plant response rating: 0
[19]; [26]
  Rice plant response rating: 0
[19]; [27]
  Rice plant response rating: 0
[19]; [28]
  Plant response rating, Rice: 0
[20]; [25]
  Sedge, Umbrella plant response rating: 0
[20]; [26]
  Sedge, Umbrella plant response rating: 0
[20]; [27]
  Sedge, Umbrella plant response rating: 30
[20]; [28]
  Plant response rating, Sedge, Umbrella: 45
[21]; [25]
  Ducksalad plant response rating: 0
[21]; [26]
  Ducksalad plant response rating: 0
[21]; [27]
  Ducksalad plant response rating: 0
[21]; [28]
  Plant response rating, Ducksalad: 0
[22]; [25]
  Barnyardgrass plant response rating: 0
[22]; 125 g ai/ha, scale of 0 to 100, 0 is no effect, 100 is complete control
  Barnyardgrass plant response rating: 0
[22]; [27]
  Barnyardgrass plant response rating: 0
[22]; [28]
  Plant response rating, Barnyardgrass: 10
